Source: paper PMC7287882, “Dual miRNases for Triple Incision of miRNA Target: Design Concept and Catalytic Performance” (Molecules, 2020)

What was measured:
miR-155 = assay: Ribonuclease activity assay, cleavage of miR-155; assay type: biochemical; conditions: miRNA 1 µM, DC 20 µM, 37 °C
Description: The ribonuclease activity of DCs was studied under two different buffer conditions: buffer (1) contained 50 mM Tris-HCl, pH 7.0, 200 mM KCl, 1 mM EDTA, which imitates intracellular conditions (e.g., pH and potassium ions concentration) and was used in a number of studies previously; and buffer (2) contained 20 mM Tris-HCl, pH 7.8, 40 mM KCl, 8 mM MgCl2, 1 mM DTT, 0.02 mg/mL BSA, which is recommended for in vitro reactions with RNase H (Figure 3 and Figure 4).
Figure 3 Kinetics of cleavage of 5′-[^32P]-labeled miR-17, miR-18a, miR-155, miR-21 and miR-21_1 by corresponding DCs in the buffer (1), containing 50 mM Tris-HCl, pH 7.0, 200 mM KCl and 1 mM EDTA. (a–e) Radioautographs of 18% denaturing PAAG showing the cleavage products of miR-17, miR-18a, miR-155, miR-21 and miR-21_1, respectively. miRNA (1 µM) and corresponding DC (20 µM) were incubated at 37 °C for 72 h. Lanes Im and T1—imidazole ladder and partial RNA digestion with RNase T1, respectively; control–miRNA was incubated in the absence of the conjugate. The incubation time (in hours) is show at the top. SS gap–single-stranded region of miRNA formed upon hybridization with DC; (f) Kinetics of miRNAs cleavage by DCs depending on the incubation time. Data are presented as mean ± s.e.
Figure 4 Kinetics of cleavage of 5′-[^32P]-labeled miR-17, miR-18a, miR-155, miR-21, and miR-21_1 by corresponding DCs in the buffer (2), containing 20 mM Tris-HCl, pH 7.8, 40 mM KCl, 8 mM MgCl2, 1 mM DTT, 0.02 mg/mL BSA. (a–e) Radioautographs of 18% denaturing PAAG showing the cleavage products of miR-17, miR-18a, miR-155, miR-21 and miR-21_1, respectively. miRNA (1 µM) and corresponding DC (20 µM) were incubated at 37 °C for 72 h. Lanes Im and T1–imidazole ladder and partial RNA digestion with RNase T1, respectively; control–miRNA was incubated in the absence of the conjugate. The incubation time (in hours) is shown at the top. SS gap–single-stranded region of miRNA formed upon hybridization with DC; (f) Kinetics of miRNAs cleavage by DCs. Data are presented as mean ± s.e.
The reaction mixture (10 µL) contained 800 cpm (Cherenkov’s counting) of [^32P]-miRNA, 1 μM unlabeled miRNA, one of the conjugates at a concentration 10 or 20 μM and one of the buffers: 50 mM Tris-HCl, pH 7.0, 200 mM KCl, 1 mM EDTA–buffer (1) or 20 mM Tris-HCl, pH 7.8, 40 mM KCl, 8 mM MgCl2, 1 mM DTT, 0.02 mg/mL BSA–buffer (2). The mixture was incubated at 37 °C for 0–72 h and quenched by precipitation of RNA with 2% LiClO4 in acetone (90 µL). RNA was collected by centrifugation and dissolved in loading buffer (8 M urea, 0.025% bromophenol blue, 0.025% xylene cyanol). RNA cleavage products were analyzed in 18% PAAG/8M urea using TBE (100 mM Tris-borate, pH 8.3, 2 mM EDTA) as running buffer. To identify cleavage sites, an imidazole and T1-ladders produced by partial RNA cleavage with 2 M imidazole buffer (pH 7.0) and with RNase T1 [68], respectively, were run in parallel. To obtain quantitative data, gels were dried and analyzed using Molecular Imager FX. The total extent of RNA cleavage and the extent of RNA cleavage at each individual site were determined by using Quantity One software v.4.1 (Bio-Rad, Hercules, CA, USA).

miR-17 = assay: Gel-retardation assay, hybridization with miR-17; assay type: binding; conditions: 50 mM Tris-HCl pH 7.0, 200 mM KCl, 1 mM EDTA, 37 °C, 45 min, mean of 3
From the text: We carried out a comparative analysis of the hybridization properties of the developed DCs with the corresponding SCs, which were the products of the first stage of the DCs synthesis. As discussed above, each SC consisted of the corresponding oligonucleotide A, which was complementary to the 5′-region of the matching miRNA target, and the catalytic peptide [LRLRG]2, attached to the 5′-end of this oligonucleotide via a thiohexyl linker (linker 2). […] Indeed, the level of binding of DCs to their miRNA targets reached 96, 90, 75, 55% at equimolar concentration (1 μM), and 99, 96, 92 and 69% at 5-fold excess of DCs over miR-17, miR-18a, miR-21 and miR-155, respectively (Figure 2). […]
The reaction mixture (4 µL) containing 50 mM Tris-HCl, pH 7.0, 200 mM KCl and 1 mM EDTA, 100 cpm (Cherenkov’s counting) of [^32P]-miRNA, 1 μM unlabeled miRNA, a conjugate at a concentration ranging from 0.1 to 10 μM was incubated at 37 °C for 45 min and quenched by adding of a loading buffer (20% ficoll, 0.025% bromophenol blue, 0.025% xylene cyanol). […] Formation of the complex miRNA/conjugate was analyzed by electrophoresis in 15% native PAAG at 4 °C. The gels were analyzed using Molecular Imager FX. The extent of binding of conjugate to miRNA was determined as a ratio of radioactivity measured in the complex to the total radioactivity applied onto the gel lane.

Substance | Total Cleavage (miR-155; buffer (1) 50 mM Tris-HCl pH 7.0, 200 mM KCl, 1 mM EDTA, 2 h) [%] | Total Cleavage (miR-155; buffer (1) 50 mM Tris-HCl pH 7.0, 200 mM KCl, 1 mM EDTA, 6 h) [%] | Total Cleavage (miR-155; buffer (1) 50 mM Tris-HCl pH 7.0, 200 mM KCl, 1 mM EDTA, 24 h) | Total Cleavage (miR-155; buffer (1) 50 mM Tris-HCl pH 7.0, 200 mM KCl, 1 mM EDTA, 48 h) [%] | Total Cleavage (miR-155; buffer (1) 50 mM Tris-HCl pH 7.0, 200 mM KCl, 1 mM EDTA, 72 h) [%] | Total Cleavage (miR-155; buffer (2) 20 mM Tris-HCl pH 7.8, 40 mM KCl, 8 mM MgCl2, 1 mM DTT, 0.02 mg/mL BSA, 2 h) [%] | Total Cleavage (miR-155; buffer (2) 20 mM Tris-HCl pH 7.8, 40 mM KCl, 8 mM MgCl2, 1 mM DTT, 0.02 mg/mL BSA, 6 h) [%] | Total Cleavage (miR-155; buffer (2) 20 mM Tris-HCl pH 7.8, 40 mM KCl, 8 mM MgCl2, 1 mM DTT, 0.02 mg/mL BSA, 24 h) [%] | Total Cleavage (miR-155; buffer (2) 20 mM Tris-HCl pH 7.8, 40 mM KCl, 8 mM MgCl2, 1 mM DTT, 0.02 mg/mL BSA, 48 h) [%] | Total Cleavage (miR-155; buffer (2) 20 mM Tris-HCl pH 7.8, 40 mM KCl, 8 mM MgCl2, 1 mM DTT, 0.02 mg/mL BSA, 72 h) [%] | rise of Kobs in buffer (2) compared to Kobs in buffer (1) (miR-155) [fold] | level of binding of DC to miRNA target (miR-17; 5-fold excess of DC over miRNA (1 µM)) [%] | level of binding of DC to miRNA target (miR-17; equimolar, DC 1 µM : miRNA 1 µM, 15% native PAAG) [%]
ACCCCTAT–linker 1–[GRLRL]2–linker 2–TTAGCATTAA [miRNA-155-DC, Dual oligonucleotide-peptide conjugate targeted to miR-155: catalytic peptide [LRLRG]2 between two 2-aminoadenine-containing oligodeoxyribonucleotides] | 0 | 0 | 0,5% | 16 | 21 | 15 | 41 | 56 | 57 | 72 | 6 | – | –
CTACCTGC–linker 1–[GRLRL]2–linker 2–AAGCACTTTG [miRNA-17-DC, Dual oligonucleotide-peptide conjugate targeted to miR-17: catalytic peptide [LRLRG]2 between two 2-aminoadenine-containing oligodeoxyribonucleotides] | – | – | – | – | – | – | – | – | – | – | – | 99 | 96
